What was measured:
[1] = test system: MIN6 cells expressing proinsulin-luciferase construct; test: High-throughput luciferase secretion screen, proinsulin-luciferase reporter, 384-well; assay type: cell-based, mouse; conditions: for Z-score / Z-score With Glucose / Z-score Without Glucose: luciferase secretion, 30 μM, 1 hour; for Z-score: 1600 compound screen, Z-score vs DMSO wells; for Z-score / Z-score With Glucose: 100 mg/dL glucose; for Z-score With Glucose / Z-score Without Glucose: repeated 1600-compound screen; for Z-score Without Glucose: absence of glucose
Description: MIN6 and INS-1E cells were expanded to 80% confluence in their respective growth media, washed once in PBS and incubated for 1 hour at 37° C. in KRB without glucose. Cells were then dissociated, spun at 300 g×2 minutes, resuspended in fresh KRB without glucose and filtered through 40 μm mesh (Becton Dickenson®). Next, the cells were counted and diluted in KRB to 1×10^6 cells per mL, and glucose was added as required for each experiment. Cells were then seeded in 384-well format, 3×10^4 cells in 30 μL per well, using a Multidrop™ Combi device (Thermo Scientific®, Billerica, Mass.). Compounds from the Pharmakon 1600 Collection (Microsource Discovery Systems™, Gaylordsville, Conn.) were pinned into each well using a CyBio® Vario (CyBio®, Jena, Germany) to a final concentration of 30 μM, and the plates were then incubated for 1 hour at 37° C. The plates were then spun at 300 g×2 minutes and the supernatant transferred to a new 384-well plate. Coelenterazine substrate was then added to a final concentration of 20 μM and luciferase activity determined using a standard plate reader (Biotek®).
For the high-throughput screens, the Z-score of each test compound was calculated using the formula: […]
where x is the log-transformed, signal decay-adjusted luciferase signal from a compound-treated well, μ is the mean of the log-transformed luciferase signals from the DMSO-treated wells on the same plate, and a is the standard deviation of the log-transformed luciferase signals of the DMSO-treated wells across all plates (to allow for cross-plate comparison of compounds). Prior to calculating the Z-score, a row-based correction factor was applied to all luciferase readings to adjust for the rapid signal decay occurring during the course of each 384-well plate read. The signal decay was modeled as a logarithmic function (Microsoft® Excel) and then used to adjust each well's luciferase reading based on the corresponding row within the plate.
We performed a pilot chemical screen at a substimulatory glucose concentration (100 mg/dL) in MIN6 cells using a collection of 1600 known bioactive small molecules, with the sulfonylurea glipizide included as a positive control. […] Several commonly used drugs without known links to beta-cell function caused significant increases in luciferase secretion in our assay (compounds summarized in Table 1).
As there is a well-recognized need for glucose-dependent small-molecule agonists of insulin secretion, we subsequently evaluated whether our assay could be adapted to find such secretagogues. We repeated the 1600-compound screen in the presence and absence of a substimulatory glucose concentration (100 mg/dL).

[2] = test system: Alpha TC1 mouse alpha cell line; test: Luciferase secretion, proglucagon-luciferase (G2) reporter in alpha cells; assay type: cell-based; conditions: glucose 0-300 mg/dL (0-16.7 mM)
Description: The preglucagon G^2 construct was introduced into the Alpha TC1 mouse alpha cell line. Cells were stimulated with IBMX, arginine, or potassium chloride (KCl) and varying amounts of glucose in the range of 0-300 mg/dL (0-16.7 mM). Luciferase activity of the supernatant was determined (FIG. 6).

[3] = test system: MIN6 mouse beta cell line; test: Luciferase secretion, preproamylin-Gaussia luciferase (PAG) reporter; assay type: cell-based; conditions: 1 hour at the indicated glucose concentrations; 25 uM glipizide, 50 uM IBMX, 20 uM forskolin, 40 mM KCl, 20 uM PMA
Description: FIG. 4 is a graph showing the pre-proamylin-luciferase reporter in MIN6 cells responds as predicted to known insulin secretagogues. Cells were treated for 1 hour at the indicated glucose concentrations with either DMSO, 25 uM glipizide, 2.5 uM glucokinase activator (GKA), 50 uM 3-isobutyl-1-methylxanthine (IBMX), 20 uM forskolin, 40 mM potassium chloride (KCl), or 20 uM phorbol myristate acetate (PMA).
For standard secretion assays, MIN6 and INS-1E cells were plated in 96-well format at a density of 4×10^4 cells per well in 100 μL of their respective growth media and incubated overnight at 37° C. in 5% CO2 to allow attachment. Cells were washed once with PBS and incubated for 1 hour at 37° C. in sterile, 0.45 μm-filtered Krebs Ringer Buffer (KRB) containing 138 mM NaCl, 5.4 mM KCl, 2.6 mM MgCl2, 2.6 mM CaCl2, 5 mM NaHCO3, 10 mM HEPES and 5 g/L bovine serum albumin (Sigma®). The cells were then washed in KRB once and stimulated for 1 hour in 100 μL of fresh KRB containing varying amounts of glucose and compounds. The insulin concentration was determined using an insulin ELISA (ALPCO®) with the supplied protocol. Luciferase activity was determined from the same samples by adding the coelenterazine substrate (Nanolight®) to the supernatant to a final concentration of 20 μM and reading on a standard plate reader (Biotek™, Winooski, Vt.).
The preproamlyin constructs was introduced into the MIN6 mouse beta cell line (FIGS. 3A and 3B).

[4] = test system: GLUTag mouse L-cell line; test: Luciferase secretion, proglucagon-luciferase (G2) reporter in L cells; assay type: cell-based
Description: The proglucagon G^2 construct was also introduced into the GLUTag mouse L-cell line. Cells were stimulated with Forskolin/IBMX, KCl, glipizide, PMA, and L-glutamine. Luciferase activity of the supernatant was determined.

SMILES | Z-score [1] | Z-score With Glucose [1] | Z-score Without Glucose [1] | also measured
CN(C)CC[C@@H](c1ccc(Cl)cc1)c1ccccn1 [(S)-chlorpheniramine] | 31.8 |  |  | 
COc1c2ccoc2cc2oc(=O)ccc12 [Bergapten] |  | 20.9 | 2.9 | 
CCN(CC)CCNC(C(=O)OCCC(C)C)c1ccccc1 (stereo not drawn) [Camylofine] | 23.8 | 4.7 | 0.2 | 
COc1ccccc1OCCNCC(O)COc1cccc2[nH]c3ccccc3c12 (stereo not drawn) [Carvedilol] |  |  | 1.5 | 
Clc1ccc(Cn2c(CN3CCCC3)nc3ccccc32)cc1 [Clemizole] |  | 12.2 | 0.4 | 
CC(=O)[C@@]1(O)CC[C@H]2[C@@H]3CCC4=CC(=O)CC[C@]4(C)[C@H]3CC[C@@]21C [Hydroxyprogesterone] |  | 18.3 | 2.7 | Z-score Δ ([1]; difference of Z-score with and without glucose): 15.6
CC(C)Cn1c(=O)n(C)c(=O)c2[nH]cnc21 [IBMX, 3-isobutyl-1-methylxanthine] |  |  |  | luciferase secretion (luciferase activity of the supernatant) [2]: no secretion of luciferase; luciferase activity (luminescence) [3]: increased luminescence in a dose-dependent manner
[Cl-].[K+] [KCl, potassium chloride] |  |  |  | luciferase secretion (luciferase activity of the supernatant) [2]: secreted luciferase; luciferase secretion (luciferase activity of the supernatant) [4]: secreted luciferase; luciferase activity (luminescence) [3]: increased luminescence in a dose-dependent manner
NC(=O)CC[C@H](N)C(=O)O [L-glutamine] |  |  |  | luciferase secretion (luciferase activity of the supernatant) [4]: no secretion of luciferase
C[C@@H]1CC(=O)NN=C1c1ccc(NN=C(C#N)C#N)cc1 [Levosimendan] | 40.7 |  |  | 
Oc1ccc(OCc2ccccc2)cc1 [Monobenzone] | 38.7 | 31.8 | 5.6 | 
CCN(CC)CCOC(=O)C(Cc1cccc2ccccc12)CC1CCCO1 (stereo not drawn) [Nafronyl] | 25.4 | 17.8 | 3.4 | 
Cc1ccccc1C(OCCN(C)C)c1ccccc1 (stereo not drawn) [Orphenadrine] | 27.4 |  |  | 
CCCCCCCCCCCCCC(=O)O[C@@H]1[C@@H](C)[C@@]2(O)[C@@H](C=C(CO)C[C@]3(O)C(=O)C(C)=C[C@@H]23)[C@@H]2C(C)(C)[C@]12OC(C)=O [PMA, phorbol myristate acetate] |  |  |  | luciferase secretion (luciferase activity of the supernatant) [4]: secreted luciferase; luciferase activity (luminescence) [3]: increased luminescence in a dose-dependent manner
CCCNCC(O)COc1ccccc1C(=O)CCc1ccccc1 (stereo not drawn) [Propafenone] |  | 10.5 | 1.5 | 
O=C(CCCN1CCC2(CC1)C(=O)NCN2c1ccccc1)c1ccc(F)cc1 [Spiperone] |  | 9.0 | −2.8 | 
Nc1c2c(nc3ccccc13)CCCC2 [Tacrine] | 38.8 |  |  | 
Nc1nc(N)c2nc(-c3ccccc3)c(N)nc2n1 [Triamterene] | 76.3 |  |  | 
OC(CCN1CCCCC1)(c1ccccc1)C1CCCCC1 (stereo not drawn) [Trihexyphenidyl] | 50.5 |  |  | 
N=C(N)NCCC[C@H](N)C(=O)O [arginine] |  |  |  | luciferase secretion (luciferase activity of the supernatant) [2]: secreted luciferase
Cc1cnc(C(=O)NCCc2ccc(S(=O)(=O)NC(=O)NC3CCCCC3)cc2)cn1 [glipizide] |  |  |  | luciferase secretion (luciferase activity of the supernatant) [4]: no secretion of luciferase; luciferase activity (luminescence) [3]: did not increase luciferase activity; luciferase secretion ([1]; screen in presence and absence of 100 mg/dL glucose): caused luciferase secretion regardless of the ambient glucose level

— patent publication US10370697B2, “Propeptide-luciferase fusion proteins and methods of use thereof” (THE BROAD INSTITUTE, INC., priority 2011, dated 2019)
